“And” between values parts separate entries of the source, which are not always exact repeats. Identical values can stand only once.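 All cell lines were grown in 96-well plates and treated with compound for 48 hours. Abbreviation: GI50, concentration required for 50% inhibition of growth.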 The source made the active and inactive calls. No stated cut-off is given here; in the data, active = GI50 up to about 1.1 µM and inactive = higher.
Key:
Experiment in all cases: DTP human tumour cell line panel, 48 h
786-0 = tested on: 786-0
COLO 205 = tested on: COLO 205
EKVX = tested on: EKVX
HCC 2998 = tested on: HCC 2998
HOP-92 = tested on: HOP-92
HT-29 = tested on: HT-29
IGROV-1 = tested on: IGROV-1
LOX IMVI = tested on: LOX IMVI
M14 = tested on: M14
MCF7 = tested on: MCF7
MDA-MB-435 = tested on: MDA-MB-435
NCI/ADR-RES = tested on: NCI/ADR-RES
OVCAR-3 = tested on: OVCAR-3
OVCAR-8 = tested on: OVCAR-8
RPMI-8226 = tested on: RPMI-8226
RXF 393 = tested on: RXF 393
SNB-75 = tested on: SNB-75
SW-620 = tested on: SW-620
U-251 = tested on: U-251

Measured: GI50

CCN(CC)CCC(=O)c1ccc(Oc2ccc(C)cc2)cc1
inactive: 786-0 16.5 µM | COLO 205 23.4 µM | EKVX 20 µM | HCC 2998 19.2 µM | HOP-92 23.7 µM | HT-29 18.9 µM | IGROV-1 20.1 µM | LOX IMVI 16.7 µM | M14 16.6 µM | MCF7 17.6 µM | MDA-MB-435 18 µM | NCI/ADR-RES 23 µM | OVCAR-3 17.6 µM | OVCAR-8 19.8 µM | RPMI-8226 7.29 µM | RXF 393 16.4 µM | SNB-75 20.2 µM | SW-620 18.7 µM | U-251 17 µM

CCOC(=O)/C(=C\c1ccc(CO)o1)P(=O)(OCC)OCC
inactive: 786-0 19.7 µM | COLO 205 23 µM | EKVX > 100 µM | HCC 2998 > 100 µM | HOP-92 23.7 µM | HT-29 33.2 µM | IGROV-1 37.2 µM | LOX IMVI 18.5 µM | M14 31.9 µM | MCF7 43.9 µM | MDA-MB-435 29 µM | NCI/ADR-RES 22.2 µM | OVCAR-3 18.9 µM | OVCAR-8 > 10 µM | RPMI-8226 40.7 µM | RXF 393 34.3 µM | SNB-75 33 µM | SW-620 27.4 µM | U-251 42.4 µM

CCOC(=O)c1cnc2oc(/C=N/N3CC(CN4CCOCC4)OC3=O)cc2c1O (stereo not given)
inactive: 786-0 > 100 µM | COLO 205 > 100 µM | EKVX > 100 µM | HCC 2998 > 100 µM | HOP-92 > 100 µM | HT-29 > 100 µM | IGROV-1 > 100 µM | LOX IMVI > 100 µM | M14 > 100 µM | MCF7 > 100 µM | MDA-MB-435 > 100 µM | NCI/ADR-RES > 100 µM | OVCAR-3 > 100 µM | OVCAR-8 > 100 µM | RPMI-8226 > 100 µM | RXF 393 > 100 µM | SNB-75 > 100 µM | SW-620 > 100 µM | U-251 > 100 µM

O=C1CC(c2ccccc2)n2cccc21 (stereo not given)
inactive: 786-0 > 100 µM | COLO 205 > 100 µM | EKVX > 100 µM | HCC 2998 > 100 µM | HOP-92 > 100 µM | HT-29 > 100 µM | IGROV-1 > 100 µM | LOX IMVI > 100 µM | M14 > 100 µM | MCF7 > 100 µM | MDA-MB-435 > 100 µM | NCI/ADR-RES > 100 µM | OVCAR-3 > 100 µM | OVCAR-8 > 100 µM | RPMI-8226 > 100 µM | RXF 393 > 100 µM | SNB-75 > 100 µM | SW-620 > 100 µM | U-251 > 100 µM

COc1ccc(-c2c(C#N)c(N)n(C3OCC(OC(C)=O)C(OC(C)=O)C3OC(C)=O)c(=S)c2C#N)cc1 (stereo not given)
inactive: 786-0 42.4 µM and 36.8 µM | COLO 205 36.1 µM and 50.1 µM | EKVX 34.7 µM and 22.6 µM | HCC 2998 37.8 µM and 26.6 µM | HOP-92 16.4 µM and 11.8 µM | HT-29 41.2 µM and 44.5 µM | IGROV-1 77.1 µM and 63.4 µM | LOX IMVI 30 µM and 34 µM | M14 53 µM and 49.3 µM | MCF7 27.5 µM and 49.3 µM | MDA-MB-435 25.3 µM and 35.7 µM | NCI/ADR-RES > 100 µM | OVCAR-3 31.8 µM and 23.4 µM | OVCAR-8 39.3 µM and 21.8 µM | RPMI-8226 25.9 µM and 26.4 µM | RXF 393 19.1 µM and 33.6 µM | SNB-75 31.8 µM and 21 µM | SW-620 > 100 µM and 93.5 µM | U-251 32.9 µM and 54.5 µM

Source: ChEMBL document CHEMBL1201862, “PubChem BioAssay data set” (2004)
